Test results from patent EP0083750A1, “Antimycotic azolyl butanols” (BAYER AG, priority 1981, dated 1983).
Converted amounts (≈) assume the structure as drawn. Structures can show the parent of a compound that is named as a salt. Values belong to the compound of their own block, whether it stands above or below them.

Experiments:
Format in all cases: cell-based
[1] = tested on: Dermatophyten, Schimmelpilze, Hefen; assay: Antimycotic in-vitro activity, serial dilution test, overall comparison with prior art; settings: in-vitro Reihenverdünnungstest
Experimental: (§1) Versuchsbeschreibung: • Die in-vitro-Prüfungen wurden im Reihenverdünnungstest mit Keiminokula von durchschnittlich 5 x 10^4 Keimen/ml Substrat durchgeführt. Als Nährmedium dienten • a) für Dermatophyten und Schimmelpilze: Sabourand's milieu d'epreuve • b) für Hefen: • Fleischextrakt-Traubenzucker-Bouillon.
(§2) Die Bebrütungstemperatur betrug 20°C, die Bebrütungsdauer lag bei 24 bis 96 Stunden bei Hefen und 96 Stunden bei Dermatophyten und Schimmelpilzen.

Aspergillus fumig. = assay: Antimycotic in-vitro activity, serial dilution test (MIC); settings: 96 h, Reihenverdünnungstest, 5 x 10^4 Keimen/ml Substrat, Sabourand's milieu d'epreuve, 20°C, 96 Stunden, read-out: MHK-Werte in γ/ml Nährmedium, Aspergillus fumig.
Experimental: as §1, §2

Trichophyton mentagr. = assay: as above; settings: 96 h, Reihenverdünnungstest, 5 x 10^4 Keimen/ml Substrat, Sabourand's milieu d'epreuve, 20°C, 96 Stunden, read-out: MHK-Werte in γ/ml Nährmedium, Trichophyton mentagr.
Experimental: as §1, §2

Candida albicans = assay: as above; settings: Reihenverdünnungstest, 5 x 10^4 Keimen/ml Substrat, Fleischextrakt-Traubenzucker-Bouillon, 20°C, 24 bis 96 Stunden, read-out: MHK-Werte in γ/ml Nährmedium, Candida albicans
Experimental: as §1, §2

Torulopsis glabrata = assay: as above; settings: Nakaseomyces glabratus; Reihenverdünnungstest, 5 x 10^4 Keimen/ml Substrat, Fleischextrakt-Traubenzucker-Bouillon, 20°C, 24 bis 96 Stunden; read-out: MHK-Werte in γ/ml Nährmedium, Torulopsis glabrata
Experimental: as §1, §2

Microsporum canis = assay: as above; settings: 96 h, Reihenverdünnungstest, 5 x 10^4 Keimen/ml Substrat, Sabourand's milieu d'epreuve, 20°C, 96 Stunden, read-out: MHK-Werte in γ/ml Nährmedium, Microsporum canis
Experimental: as §1, §2

Compound: C=CCC(C(O)C(C)(C)Oc1ccc(Cl)cc1Cl)n1ccnc1 (stereo not drawn) [Beispiel 66]
antimykotische Wirkung im Vergleich zu den bekannten Verbindungen (A) und (B) [1]: bessere antimykotische Wirkung | MIC (Aspergillus fumig.): 16 µg/mL (≈ 45 µM) | MIC (Trichophyton mentagr.): 4 µg/mL (≈ 11.3 µM) | MIC (Candida albicans): < 1 µg/mL | MIC (Torulopsis glabrata): 4 µg/mL (≈ 11.3 µM) | MIC (Microsporum canis): 8 µg/mL (≈ 22.5 µM)

Compound: CCCCC(C(O)C(C)(C)CSc1ccc(Cl)cc1)n1cncn1 (stereo not drawn) [Beispiel 41]
antimykotische Wirkung im Vergleich zu den bekannten Verbindungen (A) und (B) [1]: bessere antimykotische Wirkung | MIC (Aspergillus fumig.): > 64 µg/mL | MIC (Trichophyton mentagr.): < 1 µg/mL | MIC (Candida albicans): < 1 µg/mL | MIC (Torulopsis glabrata): 2 µg/mL (≈ 5.44 µM) | MIC (Microsporum canis): < 1 µg/mL

Compound: CC(C)(Oc1ccc(Cl)cc1Cl)C(O)C(Cc1ccccc1)n1cncn1 (stereo not drawn) [Beispiel 28]
antimykotische Wirkung im Vergleich zu den bekannten Verbindungen (A) und (B) [1]: bessere antimykotische Wirkung | MIC (Aspergillus fumig.): 16 µg/mL (≈ 39.4 µM) | MIC (Trichophyton mentagr.): 2 µg/mL (≈ 4.92 µM) | MIC (Candida albicans): 16 µg/mL (≈ 39.4 µM) | MIC (Torulopsis glabrata): 64 µg/mL (≈ 158 µM) | MIC (Microsporum canis): 4 µg/mL (≈ 9.84 µM)

Compound: CC(C)(CSc1ccc(Cl)cc1)C(O)C(Cc1ccc(Cl)cc1)n1cncn1 (stereo not drawn) [Beispiel 38]
antimykotische Wirkung im Vergleich zu den bekannten Verbindungen (A) und (B) [1]: bessere antimykotische Wirkung | MIC (Aspergillus fumig.): 64 µg/mL (≈ 147 µM) | MIC (Trichophyton mentagr.): < 1 µg/mL | MIC (Candida albicans): < 1 µg/mL | MIC (Torulopsis glabrata): < 1 µg/mL | MIC (Microsporum canis): < 1 µg/mL

Compound: CC(C)(Oc1ccc(Cl)cc1)C(O)C(Cc1c(Cl)cccc1Cl)n1cncn1 (stereo not drawn) [Beispiel 29]
antimykotische Wirkung im Vergleich zu den bekannten Verbindungen (A) und (B) [1]: bessere antimykotische Wirkung | MIC (Aspergillus fumig.): > 64 µg/mL | MIC (Trichophyton mentagr.): < 1 µg/mL | MIC (Candida albicans): < 1 µg/mL | MIC (Torulopsis glabrata): 4 µg/mL (≈ 9.08 µM) | MIC (Microsporum canis): 4 µg/mL (≈ 9.08 µM)

Compound: C=CCCC(C(O)C(C)(C)COc1ccc(Cl)c(Cl)c1)n1cncn1 (stereo not drawn) [Beispiel 95]
antimykotische Wirkung im Vergleich zu den bekannten Verbindungen (A) und (B) [1]: bessere antimykotische Wirkung | MIC (Aspergillus fumig.): 8 µg/mL (≈ 20.8 µM) | MIC (Trichophyton mentagr.): < 1 µg/mL | MIC (Candida albicans): 2 µg/mL (≈ 5.2 µM) | MIC (Torulopsis glabrata): 32 µg/mL (≈ 83.3 µM) | MIC (Microsporum canis): < 1 µg/mL

Compound: Cc1ccc(CC(C(O)C(C)(C)COc2ccc(Cl)cc2)n2cncn2)cc1 (stereo not drawn) [Beispiel 10]
antimykotische Wirkung im Vergleich zu den bekannten Verbindungen (A) und (B) [1]: bessere antimykotische Wirkung | MIC (Aspergillus fumig.): 4 µg/mL (≈ 10 µM) | MIC (Trichophyton mentagr.): < 1 µg/mL | MIC (Candida albicans): < 1 µg/mL | MIC (Torulopsis glabrata): < 1 µg/mL | MIC (Microsporum canis): < 1 µg/mL

Further lines, with some results ahead:

MIC (Aspergillus fumig.): 64 µg/mL | MIC (Trichophyton mentagr.): 2 µg/mL | MIC (Candida albicans): 16 µg/mL | MIC (Torulopsis glabrata): 64 µg/mL | MIC (Microsporum canis): 64 µg/mL
Compound: CC(C)(Oc1ccc(Cl)cc1Cl)C(O)C(Cc1ccc(Cl)cc1)n1cncn1 (stereo not drawn) [Beispiel 1, 5-(4-Chlorphenyl)-2-(2,4-dichlorphen-oxy)-2-methyl-4-(1,2,4-triazol-1-yl)-pentan-3-ol-hydrochlorid]
antimykotische Wirkung im Vergleich zu den bekannten Verbindungen (A) und (B) [1]: bessere antimykotische Wirkung

MIC (Aspergillus fumig.): 8 µg/mL (≈ 24.9 µM) | MIC (Trichophyton mentagr.): 8 µg/mL (≈ 24.9 µM) | MIC (Candida albicans): 4 µg/mL (≈ 12.4 µM) | MIC (Torulopsis glabrata): 8 µg/mL (≈ 24.9 µM) | MIC (Microsporum canis): 4 µg/mL (≈ 12.4 µM)
Compound: C=CCC(C(O)C(C)(C)Oc1ccc(Cl)cc1)n1cncn1 (stereo not drawn) [Beispiel 56]
antimykotische Wirkung im Vergleich zu den bekannten Verbindungen (A) und (B) [1]: bessere antimykotische Wirkung

MIC (Aspergillus fumig.): > 64 µg/mL | MIC (Trichophyton mentagr.): < 1 µg/mL | MIC (Candida albicans): < 1 µg/mL | MIC (Torulopsis glabrata): < 1 µg/mL | MIC (Microsporum canis): 4 µg/mL (≈ 9.08 µM)
Compound: CC(C)(Oc1ccc(Cl)cc1)C(O)C(Cc1ccc(Cl)cc1Cl)n1cncn1 (stereo not drawn) [Beispiel 27]
antimykotische Wirkung im Vergleich zu den bekannten Verbindungen (A) und (B) [1]: bessere antimykotische Wirkung

MIC (Aspergillus fumig.): 64 µg/mL (≈ 159 µM) | MIC (Trichophyton mentagr.): < 1 µg/mL | MIC (Candida albicans): 4 µg/mL (≈ 9.95 µM) | MIC (Torulopsis glabrata): 2 µg/mL (≈ 4.98 µM) | MIC (Microsporum canis): 4 µg/mL (≈ 9.95 µM)
Compound: CC(C)(CSc1ccccc1)C(O)C(Cc1ccc(Cl)cc1)n1cncn1 (stereo not drawn) [Beispiel 37]
antimykotische Wirkung im Vergleich zu den bekannten Verbindungen (A) und (B) [1]: bessere antimykotische Wirkung

MIC (Aspergillus fumig.): 8 µg/mL (≈ 21.2 µM) | MIC (Trichophyton mentagr.): 2 µg/mL (≈ 5.29 µM) | MIC (Candida albicans): < 1 µg/mL | MIC (Torulopsis glabrata): 4 µg/mL (≈ 10.6 µM) | MIC (Microsporum canis): 32 µg/mL (≈ 84.7 µM)
Compound: CC(C)(Oc1ccc(Cl)cc1)C(O)C(CC1CCCCC1)n1cncn1 (stereo not drawn) [Beispiel 31]
antimykotische Wirkung im Vergleich zu den bekannten Verbindungen (A) und (B) [1]: bessere antimykotische Wirkung

MIC (Aspergillus fumig.): < 1 µg/mL | MIC (Trichophyton mentagr.): < 1 µg/mL | MIC (Candida albicans): 32 µg/mL (≈ 73.3 µM) | MIC (Torulopsis glabrata): < 1 µg/mL | MIC (Microsporum canis): 8 µg/mL (≈ 18.3 µM)
Compound: CC(C)(COc1ccc(Br)cc1)C(O)C(CC1CCCCC1)n1cncn1 (stereo not drawn) [Beispiel 35]
antimykotische Wirkung im Vergleich zu den bekannten Verbindungen (A) und (B) [1]: bessere antimykotische Wirkung

MIC (Aspergillus fumig.): 8 µg/mL (≈ 21.5 µM) | MIC (Trichophyton mentagr.): < 1 µg/mL | MIC (Candida albicans): < 1 µg/mL | MIC (Torulopsis glabrata): 4 µg/mL (≈ 10.8 µM) | MIC (Microsporum canis): < 1 µg/mL
Compound: CC(C)(Oc1ccc(Cl)cc1)C(O)C(Cc1ccccc1)n1cncn1 (stereo not drawn) [Beispiel 26]
antimykotische Wirkung im Vergleich zu den bekannten Verbindungen (A) und (B) [1]: bessere antimykotische Wirkung

MIC (Aspergillus fumig.): 8 µg/mL (≈ 22.5 µM) | MIC (Trichophyton mentagr.): 2 µg/mL (≈ 5.61 µM) | MIC (Candida albicans): 4 µg/mL (≈ 11.2 µM) | MIC (Torulopsis glabrata): 32 µg/mL (≈ 89.8 µM) | MIC (Microsporum canis): 2 µg/mL (≈ 5.61 µM)
Compound: C=CCC(C(O)C(C)(C)Oc1ccc(Cl)cc1Cl)n1cncn1 (stereo not drawn) [Beispiel 53]
antimykotische Wirkung im Vergleich zu den bekannten Verbindungen (A) und (B) [1]: bessere antimykotische Wirkung
